Structures can show the parent of a compound that is named as a salt. Where two headings read alike, the source gives them in different places.
Legend:
CYP3A4 mRNA expression [1] = assay: CYP3A4 mRNA induction in HepaRG cells; details: 24 h treatment, Fig. 2A; for CYP3A4 mRNA induction (result in words): compared with vehicle or RIF 10 μM
hPXR [2] = biological target: T1, hPXR (Homo sapiens, UniProt O75469)
T1 sequence (O75469 1-434): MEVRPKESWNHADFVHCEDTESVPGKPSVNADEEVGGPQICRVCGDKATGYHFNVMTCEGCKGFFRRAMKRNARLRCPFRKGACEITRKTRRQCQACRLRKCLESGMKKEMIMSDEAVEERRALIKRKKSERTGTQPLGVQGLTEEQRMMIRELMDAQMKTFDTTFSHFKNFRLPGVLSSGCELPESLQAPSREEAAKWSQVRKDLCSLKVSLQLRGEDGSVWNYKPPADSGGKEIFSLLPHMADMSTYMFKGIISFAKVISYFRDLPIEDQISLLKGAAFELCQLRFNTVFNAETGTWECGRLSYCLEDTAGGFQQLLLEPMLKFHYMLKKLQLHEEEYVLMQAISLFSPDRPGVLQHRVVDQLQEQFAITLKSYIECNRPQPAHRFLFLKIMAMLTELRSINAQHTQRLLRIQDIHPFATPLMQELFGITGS

hPXR [3] = biological target: T1, hPXR; assay: cell-based
CYP3A4 mRNA expression [4] = system: CYP3A4 mRNA expression
CYP3A4 mRNA expression [5] = assay: CYP3A4 mRNA induction in HepaRG-PXR-KO cells versus HepaRG cells; assay type: cell-based, human; details: HepaRG-PXR-KO vs HepaRG, 24 h, Fig. 5A
CYP2B6 mRNA expression = assay: CYP2B6 mRNA induction in HepaRG-PXR-KO cells versus HepaRG cells; assay type: cell-based, human; details: HepaRG-PXR-KO vs HepaRG, 24 h, Fig. 5B
[6] = qHTS primary screen, hPXR-Luc HepG2, 24 h, relative to positive control RIF
[7] = PXR Primary EC50, qHTS primary screen, hPXR-Luc HepG2, 24 h

PXR Primary Efficacy (hPXR [2]; [6]) [%] | EC50 (hPXR [3]) [µM] | EC50 (hPXR [3]; [7]) [µM] | Compound | PXR Follow-up Efficacy (hPXR [2]) | PXR Primary Efficacy (hPXR [2]) | other results
 |  |  | CCOC(=O)C1=C(C)NC(C)=C(C(=O)OCC)C1c1ccccc1/C=C/C(=O)OC(C)(C)C [Lacidipine] | 10.4 ± 4.4 [115 ± 15.0] % | 5.6 ± 5.5 [155 ± 70.5] % | CYP3A4 mRNA induction (result in words) (CYP3A4 mRNA expression [1]): greater extent than the positive control
201 ± 37.5 | 8.7 ± 1.5 | 8.3 ± 2.3 | Cc1cccc(N(C)C(=S)Oc2ccc3c(c2)CCC3)c1 [Tolindate] |  |  | 
 |  |  | COC(=O)C1=C(C)NC(C)=C(C(=O)OC2CCCN(Cc3ccccc3)C2)C1c1cccc([N+](=O)[O-])c1 (racemic) [rac Benidipine hydrochloride] | 4.6 ± 2.3 [105 ± 14.7] % | 5.6 ± 5.4 [141 ± 33.3] % | 
 |  |  | CC(C)C[C@H](NC(=O)[C@H](Cc1ccccc1)NC(=O)c1cnccn1)B(O)O [Bortezomib] | 0.02 ± 0.004 [83.8 ± 12.8] % | 0.008 ± 0.0005 [97.7 ± 17.9] % | 
222 ± 59.5 | 10.8 ± 1.2 | 8.8 ± 3.3 | CCOc1cc(N)c(Cl)cc1C(=O)NCC1CN(Cc2ccc(F)cc2)CCO1 (stereo not drawn) [Mosapride citrate] |  |  | 
110 ± 10.3 | 0.1 ± 0.02 | 0.04 ± 0.024 | CC(C)C[C@H](NC(=O)[C@H](CCc1ccccc1)NC(=O)CN1CCOCC1)C(=O)N[C@@H](Cc1ccccc1)C(=O)N[C@@H](CC(C)C)C(=O)[C@@]1(C)CO1 [Carfilzomib] |  |  | 
 |  |  | N=C(Nc1ccccc1)Nc1ccccc1 [1,3-Diphenylguanidine] | 2.7 ± 0.3 [393 ± 128] % | 8.0 ± 13.7 [461 ± 143] % | EC50 (hPXR [3]; PXR Primary EC50): 8 µM; EC50 (hPXR [3]; […]): 2.7 µM
 |  |  | CCCN(CCC)c1c([N+](=O)[O-])cc(C(F)(F)F)c(N)c1[N+](=O)[O-] [Prodiamine] | 8.5 ± 0.9 [108 ± 6.61] % | 4.7 ± 0.8 [168 ± 31.0] % | EC50 (hPXR [3]; PXR Primary EC50): 4.7 µM; EC50 (hPXR [3]; […]): 8.5 µM
175 ± 74.6 | 3.2 ± 0.4 | 2.6 ± 1.3 | CCN1C(=O)c2ccccc2C1Nc1ccc(OCCN2CCCCC2)cc1 (stereo not drawn) [Etomidoline] |  |  | CYP3A4 mRNA induction (result in words) (CYP3A4 mRNA expression [1]): greater extent than the positive control
 |  |  | COC(=O)c1c(C(F)F)nc(C(F)(F)F)c(C2=NCCS2)c1CC(C)C [Thiazopyr] | 4.6 ± 0.3 [102 ± 8.66] % | 1.2 ± 1.0 [108 ± 37.9] % | CYP3A4 mRNA induction (result in words) (CYP3A4 mRNA expression [4]): greater extent than the positive control; EC50 (hPXR [3]; PXR Primary EC50): 1.2 µM; EC50 (hPXR [3]; […]): 4.6 µM
 |  |  | Clc1ccc(-c2nc3sccn3c2C=NOCc2ccc(Cl)c(Cl)c2)cc1 [CITCO, 6-(4-Chlorophenyl)imidazo[2,1–b][1, 3]thiazole-5-carbaldehyde O-(3,4-dichlorobenzyl)oxime] |  |  | Change of CYP3A4 mRNA induction in PXR-KO cells (CYP3A4 mRNA expression [5]): lack a significant decrease; Change of CYP2B6 mRNA expression in PXR-KO cells (CYP2B6 mRNA expression): significantly decreased
 |  |  | Cc1nc(Nc2ncc(C(=O)Nc3c(C)cccc3Cl)s2)cc(N2CCN(CCO)CC2)n1 [Dasatinib] | 0.6 ± 0.07 [127 ± 12.0] % | 0.3 ± 0.5 [84.6 ± 22.2] % | 
 |  |  | O=C(CCCN1CCC2(CC1)C(=O)NCN2c1ccccc1)c1ccc(F)cc1 [Spiperone] | 6.2 ± 3.3 [345 ± 225] % | 3.7 ± 0.4 [341 ± 31.7] % | CYP3A4 mRNA induction (fold increase) (CYP3A4 mRNA expression [1]): > 5 fold; CYP3A4 mRNA induction (result in words) (CYP3A4 mRNA expression [1]): not statistically significant
 |  |  | CC[C@H]1CN2CCc3cc(OC)c(OC)cc3[C@@H]2C[C@@H]1C[C@H]1NCCc2cc(OC)c(OC)cc21 [Emetine] | 0.1 ± 0.01 [119 ± 8.89] % | 0.05 ± 0.04 [211 ± 74.0] % | 
 |  |  | O=C(CCCCCCC(=O)Nc1ccccc1)NO [Vorinostat (SAHA), Vorinostat] |  | 7.8 ± 3.8 [182 ± 46.9] % | 
178 ± 9.77 |  |  | Cc1oc2c(NC(=O)c3c(Cl)cccc3Cl)cccc2c1C(C)(C)O [FR167356] |  |  | EC50 (hPXR [2]): 7.1 ± 1.2 µM; EC50 (hPXR [2]; read-out: PXR Primary EC50, qHTS primary screen, hPXR-Luc HepG2, 24 h): 3 ± 2.2 µM
 |  |  | COc1cccc(N(C)C(=S)Oc2ccc3c(c2)CCCC3)n1 [Liranaftate] | 4.5 ± 0.7 [144 ± 16.0] % | 5.5 ± 2.6 [148 ± 42.6] % | CYP3A4 mRNA induction (result in words) (CYP3A4 mRNA expression [4]): greater extent than the positive control
 |  |  | Nc1nc(Cl)nc2c1ncn2[C@@H]1O[C@H](CO)[C@@H](O)[C@@H]1F [Clofarabine] | 3.3 ± 0.4 [214 ± 13.9] % | 0.7 ± 0.2 [112 ± 34.6] % | 
188 ± 41.7 | 1.6 ± 0.3 | 3.2 ± 1.7 | O[C@@H](COc1cccc2ncccc12)CN1CCN([C@@H]2c3ccccc3[C@@H]3[C@H](c4ccccc42)C3(F)F)CC1 [Zosuquidar trihydrochloride] |  |  | 

Compound | PXR Primary Efficacy (hPXR [2]; [6]) [%] | EC50 (hPXR [3]) [µM] | EC50 (hPXR [3]; [7]) [µM] | PXR Follow-up Efficacy (hPXR [2]) | PXR Primary Efficacy (hPXR [2]) | other results
CCCCOCN(C(=O)CCl)c1c(CC)cccc1CC [Butachlor] |  | 6.49 ± 2.9 | 4 ± 4 | 107 ± 26.0% | 119 ± 49.2% | CYP3A4 mRNA induction (fold increase) (CYP3A4 mRNA expression [4]; human): > 5 fold
